Measurements: ChEMBL document CHEMBL1201862, “PubChem BioAssay data set” (2004)
Activity calls are given as the source filed them.

Assays:
[1] = target: T1, High affinity choline transporter 1 (Homo sapiens, UniProt Q9GZV3); test: human choline transporter blockers, potency – cell-based, 10-point CRC, membrane potential dye, dose response (AID 588401); assay type: functional;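 also: membrane potential dye fluorescence of choline-evoked depolarization via CHT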
T1 sequence (Q9GZV3 whole entry): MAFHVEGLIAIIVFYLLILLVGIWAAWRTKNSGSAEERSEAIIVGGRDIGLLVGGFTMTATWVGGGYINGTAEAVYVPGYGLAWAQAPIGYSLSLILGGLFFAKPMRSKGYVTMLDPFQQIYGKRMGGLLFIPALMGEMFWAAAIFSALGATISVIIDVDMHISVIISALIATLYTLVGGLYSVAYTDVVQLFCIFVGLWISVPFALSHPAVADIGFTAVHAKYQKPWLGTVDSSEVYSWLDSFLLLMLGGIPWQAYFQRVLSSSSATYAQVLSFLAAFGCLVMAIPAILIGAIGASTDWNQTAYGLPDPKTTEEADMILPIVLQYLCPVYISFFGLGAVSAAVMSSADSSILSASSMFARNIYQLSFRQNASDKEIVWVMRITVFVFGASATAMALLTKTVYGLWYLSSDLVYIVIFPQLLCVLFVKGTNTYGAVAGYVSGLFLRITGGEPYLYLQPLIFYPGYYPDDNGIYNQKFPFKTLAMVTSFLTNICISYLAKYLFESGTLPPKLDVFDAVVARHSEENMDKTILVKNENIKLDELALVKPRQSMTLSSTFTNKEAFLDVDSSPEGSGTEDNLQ

[2] = target: T1, High affinity choline transporter 1; test: human choline transporter blockers, potency – cell-based, 5-point CRC, membrane potential dye, dose response (AID 504840); assay type: functional
[3] = target: T2, Cysteine protease ATG4B (Homo sapiens, UniProt Q9Y4P1); assay type: functional;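 also: Fluorescence-based dose-response confirmation assay measuring inhibition of ATG4B activity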
T2 sequence (Q9Y4P1 whole entry): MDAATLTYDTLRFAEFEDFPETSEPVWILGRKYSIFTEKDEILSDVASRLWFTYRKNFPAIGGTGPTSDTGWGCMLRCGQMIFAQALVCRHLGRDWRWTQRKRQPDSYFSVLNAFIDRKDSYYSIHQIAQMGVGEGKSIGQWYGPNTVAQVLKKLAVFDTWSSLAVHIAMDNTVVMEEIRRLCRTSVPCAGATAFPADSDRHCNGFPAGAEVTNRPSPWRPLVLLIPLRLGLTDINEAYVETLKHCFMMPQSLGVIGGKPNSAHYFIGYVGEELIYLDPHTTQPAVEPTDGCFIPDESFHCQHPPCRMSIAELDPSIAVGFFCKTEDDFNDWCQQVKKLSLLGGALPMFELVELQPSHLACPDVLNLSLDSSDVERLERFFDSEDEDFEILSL

[4] = target: Phospholipase A2 (Homo sapiens, UniProt P04054); assay type: functional;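 also: confirmatory dose-response counterscreen on phospholipase A2, testing hits that came from an ultra-high-throughput screen for ATG4B inhibitors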
Chain of Phospholipase A2 (P04054 whole entry): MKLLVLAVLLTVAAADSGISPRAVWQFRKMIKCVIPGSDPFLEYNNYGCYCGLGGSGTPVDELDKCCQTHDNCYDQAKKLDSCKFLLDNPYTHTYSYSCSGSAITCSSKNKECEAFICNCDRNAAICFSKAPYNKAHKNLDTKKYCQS

[5] = target: 72 kDa type IV collagenase (Homo sapiens, UniProt P08253); test: Dose Response validation of uHTS RPN11 inhibitor hits using a MMP-2 Fluorescence assay.; assay type: functional
Chain of 72 kDa type IV collagenase (P08253 whole entry): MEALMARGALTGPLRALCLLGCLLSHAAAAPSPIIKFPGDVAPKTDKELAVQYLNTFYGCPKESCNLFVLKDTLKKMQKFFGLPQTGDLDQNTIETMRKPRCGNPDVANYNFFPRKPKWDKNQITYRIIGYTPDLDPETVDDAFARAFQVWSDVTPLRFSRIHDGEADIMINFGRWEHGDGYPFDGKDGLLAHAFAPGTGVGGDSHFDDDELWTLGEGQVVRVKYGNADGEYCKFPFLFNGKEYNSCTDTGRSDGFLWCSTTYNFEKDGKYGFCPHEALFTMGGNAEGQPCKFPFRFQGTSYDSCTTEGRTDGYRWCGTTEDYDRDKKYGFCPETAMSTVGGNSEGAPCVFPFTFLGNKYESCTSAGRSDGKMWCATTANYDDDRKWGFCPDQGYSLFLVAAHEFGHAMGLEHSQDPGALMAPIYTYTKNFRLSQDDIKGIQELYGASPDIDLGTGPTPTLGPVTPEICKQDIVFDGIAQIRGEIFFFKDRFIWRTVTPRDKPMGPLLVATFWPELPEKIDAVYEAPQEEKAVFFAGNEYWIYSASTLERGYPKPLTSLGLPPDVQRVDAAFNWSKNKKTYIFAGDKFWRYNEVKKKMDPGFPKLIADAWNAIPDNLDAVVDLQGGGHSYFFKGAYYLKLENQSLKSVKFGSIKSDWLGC

[6] = target: 26S proteasome non-ATPase regulatory subunit 14 (Homo sapiens, UniProt O00487); test: inhibition of proteasome subunit RPN11 – biochemical, fluorescence polarization, uHTS hits, confirmation (AID 602368); assay type: functional
Chain of 26S proteasome non-ATPase regulatory subunit 14 (O00487 whole entry): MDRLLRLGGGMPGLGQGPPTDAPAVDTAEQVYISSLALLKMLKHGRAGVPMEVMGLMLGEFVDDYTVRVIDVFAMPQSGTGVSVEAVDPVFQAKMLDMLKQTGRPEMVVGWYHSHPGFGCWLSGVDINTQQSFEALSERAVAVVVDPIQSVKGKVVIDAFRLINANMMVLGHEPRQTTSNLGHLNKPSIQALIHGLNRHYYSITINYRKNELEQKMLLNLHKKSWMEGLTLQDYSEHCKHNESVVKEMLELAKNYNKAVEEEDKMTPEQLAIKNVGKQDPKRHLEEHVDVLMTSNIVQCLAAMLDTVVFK

[7] = target: Prothrombin (Bos taurus, UniProt P00735); test: thrombin protease inhibitors – biochemical, fluorescence polarization, uHTS hits, dose response (AID 602369); assay type: functional
[8] = target: Estrogen receptor beta (Homo sapiens, UniProt Q92731); test: blockers of SRC-3 recruitment to ERβ – biochemical, ELISA, streptavidin-HRP readout, orthogonal assay, confirmation (AID 1060)
Chain of Estrogen receptor beta (Q92731 whole entry): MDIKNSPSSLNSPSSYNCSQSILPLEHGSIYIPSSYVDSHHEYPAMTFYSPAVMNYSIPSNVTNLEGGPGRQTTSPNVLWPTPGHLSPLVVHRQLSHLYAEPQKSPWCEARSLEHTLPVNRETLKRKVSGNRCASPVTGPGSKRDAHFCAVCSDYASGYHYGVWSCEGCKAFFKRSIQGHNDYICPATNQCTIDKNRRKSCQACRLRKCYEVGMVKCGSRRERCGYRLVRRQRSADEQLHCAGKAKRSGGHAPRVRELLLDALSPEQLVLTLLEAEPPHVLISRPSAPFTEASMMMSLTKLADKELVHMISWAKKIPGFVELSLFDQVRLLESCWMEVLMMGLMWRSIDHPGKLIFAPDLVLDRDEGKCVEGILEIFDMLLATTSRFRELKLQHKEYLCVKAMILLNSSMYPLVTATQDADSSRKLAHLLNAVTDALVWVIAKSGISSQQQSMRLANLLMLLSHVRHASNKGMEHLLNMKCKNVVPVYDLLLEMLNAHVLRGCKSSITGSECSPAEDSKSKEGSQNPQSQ

[9] = target: DNA (cytosine-5)-methyltransferase 1 (Homo sapiens, UniProt P26358); test: inhibition of DNA methylation by DNMT1 – biochemical, fluorescent molecular beacon, confirmation (AID 602386); assay type: functional
[10] = target: T3, Carboxy-terminal domain RNA polymerase II polypeptide A small phosphatase 1 (Homo sapiens, UniProt Q9GZU7); test: CTDSP1 inhibitors, concentration-response, biochemical, absorbance readout, ultra-high-throughput screen actives (AID 540297); assay type: functional
T3 sequence (Q9GZU7 whole entry): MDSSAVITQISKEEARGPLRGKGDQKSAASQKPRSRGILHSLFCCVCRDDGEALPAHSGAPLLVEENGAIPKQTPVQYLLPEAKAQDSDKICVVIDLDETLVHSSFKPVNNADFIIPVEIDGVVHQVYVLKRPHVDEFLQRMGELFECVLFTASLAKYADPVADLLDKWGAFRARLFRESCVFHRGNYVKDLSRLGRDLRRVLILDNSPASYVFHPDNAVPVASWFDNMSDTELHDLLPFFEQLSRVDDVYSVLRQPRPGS

[11] = loss of viability in HepG2 cells – cell-based, CellTiter-Glo, cherry-picked, cytotoxicity control for Shn3 inhibitor project, dose response (AID 624134); assay type: functional
[12] = reduction of Shn3 3'UTR-driven luciferase in osteoblasts – cell-based, Clone20 osteoblasts, firefly luciferase, cherry-picked, dose response (AID 624132); assay type: functional;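 also: firefly luciferase luminescence from reporter carrying the Shn3 3'UTR in osteoblasts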
[13] = viability of PTEN-deleted HCT116 cells – cell-based, HCT116 PTEN knockout, dose response (AID 1047); assay type: functional;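 also: HCT116 colon tumor cells with PTEN knocked out; cells exposed to compound for 60 hours before readout; potency for loss of cell viability measured by luminescence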
[14] = non-specific 3'UTR reporter inhibition in Clone20-Shn3RL – cell-based, Renilla luciferase, cherry-picked, counter-screen for Shn3 inhibitor project, dose response (AID 624133); assay type: functional
[15] = target: T4, Fatty acid synthase (Homo sapiens, UniProt P49327); test: inhibition of human FAS-TE enzyme activity – biochemical, endpoint fluorescence intensity, uHTS hits, dose response (AID 624327); assay type: functional;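 also: fluorescence from hydrolysis of an O-methyl fluorescein acyl ester substrate by the enzyme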
T4 sequence (P49327 whole entry): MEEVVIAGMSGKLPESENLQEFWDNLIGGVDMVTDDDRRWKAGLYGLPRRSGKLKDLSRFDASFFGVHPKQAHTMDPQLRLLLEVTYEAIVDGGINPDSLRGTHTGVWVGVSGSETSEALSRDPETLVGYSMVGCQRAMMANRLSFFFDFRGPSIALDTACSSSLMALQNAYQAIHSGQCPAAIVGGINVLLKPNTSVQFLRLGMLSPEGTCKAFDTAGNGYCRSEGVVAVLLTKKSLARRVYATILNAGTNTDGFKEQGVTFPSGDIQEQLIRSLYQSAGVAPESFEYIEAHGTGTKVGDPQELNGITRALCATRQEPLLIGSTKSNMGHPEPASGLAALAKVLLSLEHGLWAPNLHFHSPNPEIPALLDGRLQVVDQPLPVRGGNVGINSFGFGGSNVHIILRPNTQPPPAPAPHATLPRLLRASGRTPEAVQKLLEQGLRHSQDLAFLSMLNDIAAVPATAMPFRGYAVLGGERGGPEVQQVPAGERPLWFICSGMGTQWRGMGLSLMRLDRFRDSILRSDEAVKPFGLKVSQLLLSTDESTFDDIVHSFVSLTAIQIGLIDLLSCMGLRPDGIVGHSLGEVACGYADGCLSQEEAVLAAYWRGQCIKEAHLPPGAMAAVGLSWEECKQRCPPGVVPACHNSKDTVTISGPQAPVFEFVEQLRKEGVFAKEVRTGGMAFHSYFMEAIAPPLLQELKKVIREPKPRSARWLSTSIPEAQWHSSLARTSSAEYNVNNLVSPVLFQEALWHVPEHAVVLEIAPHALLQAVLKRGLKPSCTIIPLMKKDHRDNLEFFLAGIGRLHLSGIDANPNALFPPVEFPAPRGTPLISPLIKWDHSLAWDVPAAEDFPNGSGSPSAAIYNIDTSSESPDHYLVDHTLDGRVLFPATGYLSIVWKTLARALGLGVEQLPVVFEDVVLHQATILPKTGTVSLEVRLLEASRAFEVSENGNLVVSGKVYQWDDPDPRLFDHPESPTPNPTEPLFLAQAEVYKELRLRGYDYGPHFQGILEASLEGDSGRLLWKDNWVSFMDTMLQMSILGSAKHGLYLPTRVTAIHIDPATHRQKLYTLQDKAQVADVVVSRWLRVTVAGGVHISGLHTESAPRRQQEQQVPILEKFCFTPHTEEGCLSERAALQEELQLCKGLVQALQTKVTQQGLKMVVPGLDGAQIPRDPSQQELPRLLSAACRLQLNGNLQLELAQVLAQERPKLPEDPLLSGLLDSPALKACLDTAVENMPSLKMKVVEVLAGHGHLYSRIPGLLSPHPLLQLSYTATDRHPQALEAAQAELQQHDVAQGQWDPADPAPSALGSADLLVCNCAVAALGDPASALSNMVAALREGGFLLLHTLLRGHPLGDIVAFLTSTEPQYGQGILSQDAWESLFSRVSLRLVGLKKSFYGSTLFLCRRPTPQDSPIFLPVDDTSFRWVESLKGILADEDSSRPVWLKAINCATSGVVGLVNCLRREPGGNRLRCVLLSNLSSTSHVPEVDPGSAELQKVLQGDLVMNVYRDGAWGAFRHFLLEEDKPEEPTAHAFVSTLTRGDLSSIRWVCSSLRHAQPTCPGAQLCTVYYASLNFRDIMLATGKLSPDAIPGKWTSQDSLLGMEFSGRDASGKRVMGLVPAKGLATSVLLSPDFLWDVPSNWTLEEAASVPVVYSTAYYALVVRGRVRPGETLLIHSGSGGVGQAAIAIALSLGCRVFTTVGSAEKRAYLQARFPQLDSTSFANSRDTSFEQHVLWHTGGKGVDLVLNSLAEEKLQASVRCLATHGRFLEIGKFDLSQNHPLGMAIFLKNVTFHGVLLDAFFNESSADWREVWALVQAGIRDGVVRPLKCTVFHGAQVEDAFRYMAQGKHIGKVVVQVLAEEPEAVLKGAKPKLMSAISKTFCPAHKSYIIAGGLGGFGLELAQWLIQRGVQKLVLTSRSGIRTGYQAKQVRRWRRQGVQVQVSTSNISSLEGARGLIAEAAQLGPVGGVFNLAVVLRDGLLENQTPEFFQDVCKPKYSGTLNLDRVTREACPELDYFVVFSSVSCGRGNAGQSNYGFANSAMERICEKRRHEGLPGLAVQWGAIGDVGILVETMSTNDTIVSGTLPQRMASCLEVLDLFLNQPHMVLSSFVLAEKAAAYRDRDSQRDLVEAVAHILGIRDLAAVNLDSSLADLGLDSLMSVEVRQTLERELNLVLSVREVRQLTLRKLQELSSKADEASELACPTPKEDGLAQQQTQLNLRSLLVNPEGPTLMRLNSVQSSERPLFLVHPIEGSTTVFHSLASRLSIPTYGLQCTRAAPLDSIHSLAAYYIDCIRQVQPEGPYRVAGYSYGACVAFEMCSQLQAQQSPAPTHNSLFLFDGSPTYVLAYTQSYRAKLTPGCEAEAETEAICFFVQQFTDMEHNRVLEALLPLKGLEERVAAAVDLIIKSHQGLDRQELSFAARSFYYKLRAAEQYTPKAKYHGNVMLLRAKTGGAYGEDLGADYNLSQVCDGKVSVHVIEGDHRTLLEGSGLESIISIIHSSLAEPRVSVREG

[16] = viability of HCT116 lacking mutant beta-catenin – cell-based, human colon tumor, dose response (AID 1045); assay type: functional;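 also: HCT116 colon tumor cells with beta catenin knocked out; cells exposed to compound for 60 hours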
[17] = target: T4, Fatty acid synthase; test: inhibition of human FAS-TE enzyme activity – biochemical, kinetic fluorescence intensity, dose response (AID 624326); assay type: functional;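 also: rate of fluorescence rise from hydrolysis of a fluorogenic O-methyl fluorescein ester substrate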
[18] = test system: Vero; test: cells; assay type: functional; settings: Chlorocebus sabaeus
[19] = cells
[20] = viability of uninfected HEp-2 cells – cell-based, HTS, cytotoxicity control for RSV inhibitor project, dose response (AID 2410); assay type: functional; settings: human respiratory syncytial virus
[21] = test system: Vero; test: cells; assay type: functional, cell-based; settings: Chlorocebus sabaeus
[22] = Luminescence Cell-Based Dose Response to Identify Activators of 5'UTR Stem-Loop Driven Prion Protein mRNA Translation in H4-C Neuroglioblastoma Cells. [Related pubchem assays: 1829 (Project Summary), 1814 (Primary HTS)]; assay type: functional
[23] = test system: HEK293; test: cells; assay type: functional, cell-based; settings: Homo sapiens
[24] = target: T5, Nuclear receptor subfamily 0 group B member 1 (Homo sapiens, UniProt P51843); test: Luminescence-based cell-based high throughput dose response assay for inhibitors of the orphan nuclear receptor subfamily 0, group B, member 1 (DAX1; NR0B1). [Related pubchem assays (depositor defined):AID504766, AID504790]; assay type: functional
T5 sequence (P51843 whole entry): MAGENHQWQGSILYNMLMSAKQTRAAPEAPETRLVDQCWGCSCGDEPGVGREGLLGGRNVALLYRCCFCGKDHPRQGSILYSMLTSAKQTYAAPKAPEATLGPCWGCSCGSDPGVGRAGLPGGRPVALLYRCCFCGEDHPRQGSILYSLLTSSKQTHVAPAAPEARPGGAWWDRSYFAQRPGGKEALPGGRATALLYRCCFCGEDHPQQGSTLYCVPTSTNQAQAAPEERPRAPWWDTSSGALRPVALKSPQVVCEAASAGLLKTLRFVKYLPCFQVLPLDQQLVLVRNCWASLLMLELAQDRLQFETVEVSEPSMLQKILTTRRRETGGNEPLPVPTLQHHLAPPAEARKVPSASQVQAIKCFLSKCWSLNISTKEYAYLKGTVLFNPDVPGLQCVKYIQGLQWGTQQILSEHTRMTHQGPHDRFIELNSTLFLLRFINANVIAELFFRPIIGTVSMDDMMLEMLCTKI

[25] = Luminescence Cell-Based Dose Confirmation to Identify Activators of 5'UTR Stem-Loop Driven Alpha-Synuclein mRNA Translation in H4 Neuroglioblastoma Cells. [Related pubchem assays: 1829 (Project Summary), 1814 (Primary HTS)]; assay type: functional
[26] = Luminescence Cell-Based Dose Response to Identify Activators of Luciferase Translation or Activity in H4-C Neuroglioblastoma Cells. [Related pubchem assays: 1829 (Project Summary), 1814 (Primary HTS)]; assay type: functional
[27] = test system: H4; test: Luminescence Cell-Based Dose Response HTS to Identify Activators of 5'UTR Stem-Loop Driven Prion Protein mRNA Translation in H4 Neuroglioblastoma Cells. [Related pubchem assays: 1829 (Project Summary), 1814 (Primary HTS)]; assay type: functional; settings: Homo sapiens
[28] = Luminescence Cell-Based Dose Response HTS to Identify Activators of Luciferase Translation or Activity in H4 […] Cells. [Related pubchem assays: 1829 (Project Summary), 1814 (Primary HTS)]; assay type: functional
[29] = target: T6, Oxysterols receptor LXR-beta (Homo sapiens, UniProt P55055); assay type: functional, cell-based;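 also: Cell-based luminescence dose-response assay of agonist activity at LXR, run as a confirmatory counterscreen to a daf-12 agonist screen; HEK293 cells with Gal4-LXR fusion and GAL4-driven luciferase reporter; agonist potency from rising luciferase signal of a Gal4-LXR reporter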
T6 sequence (P55055 whole entry): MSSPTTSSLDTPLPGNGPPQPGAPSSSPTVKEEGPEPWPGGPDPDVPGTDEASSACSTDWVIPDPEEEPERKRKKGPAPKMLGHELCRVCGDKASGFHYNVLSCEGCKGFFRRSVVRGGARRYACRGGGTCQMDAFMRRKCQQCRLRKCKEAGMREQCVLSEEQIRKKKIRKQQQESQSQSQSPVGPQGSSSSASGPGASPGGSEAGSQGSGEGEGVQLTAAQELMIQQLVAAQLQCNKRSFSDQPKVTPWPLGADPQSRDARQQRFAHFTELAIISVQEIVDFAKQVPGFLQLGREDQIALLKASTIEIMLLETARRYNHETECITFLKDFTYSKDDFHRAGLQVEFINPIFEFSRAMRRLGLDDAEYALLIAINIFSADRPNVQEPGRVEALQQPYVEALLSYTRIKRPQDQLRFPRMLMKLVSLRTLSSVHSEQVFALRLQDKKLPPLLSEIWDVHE

[30] = target: Beta-2 adrenergic receptor (Homo sapiens, UniProt P07550); test: ADRB2 activation measured by internalization – cell-based, FAP fluorogen, flow cytometry, cherry pick 1, dose response (AID 588763); assay type: functional
Chain of Beta-2 adrenergic receptor (P07550 whole entry): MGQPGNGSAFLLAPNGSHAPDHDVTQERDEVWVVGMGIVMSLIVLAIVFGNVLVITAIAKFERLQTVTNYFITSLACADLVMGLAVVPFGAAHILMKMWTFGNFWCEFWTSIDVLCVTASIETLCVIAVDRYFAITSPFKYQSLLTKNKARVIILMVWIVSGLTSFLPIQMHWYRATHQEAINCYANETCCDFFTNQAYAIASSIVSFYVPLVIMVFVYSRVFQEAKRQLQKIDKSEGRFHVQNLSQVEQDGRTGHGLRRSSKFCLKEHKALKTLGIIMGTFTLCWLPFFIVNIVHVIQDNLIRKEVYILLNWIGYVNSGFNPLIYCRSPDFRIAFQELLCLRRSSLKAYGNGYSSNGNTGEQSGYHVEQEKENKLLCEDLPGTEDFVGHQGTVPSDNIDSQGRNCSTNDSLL

[31] = cells; remark: listed apart in the source

## CCCC(=O)NC(=S)Nc1cccc(NC(=O)c2ccccc2Cl)c1
[1]
  IC50: 6.96 µM (active)
[2]
  IC50: 10.3 µM (active)

## COc1ccccc1CNC(=O)c1ccccc1OCc1ccc(F)cc1
[3]
  IC50: 43.6 µM (inactive)
[4]
  IC50: 49.5 µM (inactive)

## CCC(C)Sc1ccc([C@@H]2[C@H]3C(=O)N(CC)C(=O)[C@H]3[C@]3(C(=O)OC)CCCCN23)cc1 (stereo not given in full)
[5]
  IC50: > 100 µM (inactive)
[6]
  IC50: 69 µM (active)
[7]
  IC50: 47.8 µM (active)

## Cc1ccc(C(=O)O)cc1-c1ccc(/C=C2/NC(=O)N(c3ccccc3)C2=O)o1
[5]
  IC50: 29.3 µM (active)
[8]
  IC50: > 50 µM (not active)
[6]
  IC50: 16.3 µM (active)
[7]
  IC50: 33.9 µM (active)
[9]
  IC50: 11 µM (active)
[10]
  IC50: 4.1 µM (active)

## CCCCn1c(CN2CCN(c3ccccc3)CC2)nc2c1c(=O)n(C)c(=O)n2C
[11]
  AC50: 6.34 µM (active)
[1]
  IC50: 1.96 µM (active)
[12]
  AC50: 2.05 µM (active)
[13]
  EC50: 38.9 µM (active)
[2]
  IC50: 4.27 µM (active)
[14]
  AC50: 1.27 µM (active)
[15]
  IC50: 15.3 µM (active)
[16]
  EC50: 21.9 µM (active)
[17]
  IC50: 21.5 µM (inactive)

## COc1cccc(NC(=O)[C@H](Cc2c[nH]c3ccccc23)NC(=O)[C@@H]2Cc3ccccc3CN2)c1
[18]
  CC50: > 25 µM (active)
[19]
  IC50: 7.96 µM (active)
[20]
  CC50: 17.1 µM (active)
[21]
  IC50: 9.61 µM (active)

## CC(C)c1cc(C(=O)NCCc2ccccc2)no1
[22]
  EC50: 1.54 µM (active)
[23]
  IC50: > 67.5 µM (inactive)
[24]
  IC50: > 67.5 µM (inactive)
[25]
  EC50: 1.06 µM (active)
[26]
  EC50: 0.375 µM (active)
[27]
  EC50: 7.28 µM (active)
[28]
  EC50: < 0.1 µM (inconclusive)

## Cc1c(Cl)c([N+](=O)[O-])nn1Cc1ccc(C(=O)Nc2ccc(Cl)cn2)o1
[3]
  IC50: 22.5 µM (inactive)
[4]
  IC50: 11.1 µM (active)

## Cn1c(=N)n(CC(=O)c2ccc(Br)cc2)c2ccccc21
[29]
  EC50: > 67.5 µM (inactive)
[30]
  EC50: 15.6 µM (inactive)
[31]
  EC50: > 67.5 µM (inactive)

## O=c1cc(-c2ccccc2)oc2ccc(O)cc12 [6-HYDROXYFLAVONE]
[23]
  IC50: > 67.6 µM (inactive)
[24]
  IC50: > 67.6 µM (inactive)
